Measured values reported in patent US10689414B2 (Agios Pharmaceuticals, Inc., priority 2013, dated 2020).

Tested on: U87MG cells
Assay: Cellular assay, inhibition of 2-HG production in U87MG cells
Assay type: cell-based
Summary of the method: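 HT1080 or U87MG cells (U87MG kept with 500 ug/mL G418) seeded at 5000 cells/well and treated with compound at 0.2% final DMSO. Incubated 48 h at 37 °C. 2-HG inhibition determined by LC-MS. Viability read by CellTiter-Glo luminescence at 72 h post-dose.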

Compound | IC50 (Homo sapiens, U-87 MG, 48 h) [nM] | IC50 (inhibition of 2-HG production, U87MG cells, 48 hours) [nM]
N#Cc1ccnc(N2C(=O)[C@H](O)C[C@H]2C(=O)N(c2cc(F)cc(F)c2)[C@H](C(=O)NC2CCC(F)(F)CC2)c2ccccc2Cl)c1 [Compound 125, (2S,4R)—N—((S)-1-(2-Chlorophenyl)-2-(4,4-difluorocyclohexylamino)-2-oxoethyl)-1-(4-cyanopyridin-2-yl)-N-(3,5-difluorophenyl)-4-hydroxy-5-oxopyrrolidine-2-carboxamide] | < 100 | 
N#Cc1ccnc(N2C(=O)[C@H](O)C[C@H]2C(=O)N(c2cc(F)cc(F)c2)[C@H](C(=O)NC2CCC(F)(F)CC2)c2ccccc2Cl)n1 [Compound 127, (2S,4R)—N—((S)-1-(2-Chlorophenyl)-2-(4,4-difluorocyclohexylamino)-2-oxoethyl)-1-(4-cyanopyrimidin-2-yl)-N-(3,5-difluorophenyl)-4-hydroxy-5-oxopyrrolidine-2-carboxamide] | < 100 | 
N#Cc1cccc(N(C(=O)[C@@H]2CCC(=O)N2c2cc(C#N)ccn2)[C@H](C(=O)NC2CC(F)(F)C2)c2ccccc2Cl)c1 [Compound 128, (S)—N—((S)-1-(2-Chlorophenyl)-2-((3,3-difluorocyclobutyl)amino)-2-oxoethyl)-N-(3-cyano-phenyl)-1-(4-cyanopyridin-2-yl)-5-oxopyrrolidine-2-carboxamide] | < 100 | 
COc1cccc(N(C(=O)[C@@H]2CCC(=O)N2c2cc(C#N)ccn2)[C@H](C(=O)NC2CC(F)(F)C2)c2ccccc2Cl)c1 [Compound 129, (S)—N—((S)-1-(2C)-2-((3,3-difluorocyclobutyl)amino)-2-oxoethyl)-1-(4-cyanopyridin-2-yl)-N-(3-methoxyphenyl)-5-oxopyrrolidine-2-carboxamide] | < 100 | 
N#Cc1ccnc(N2C(=O)CC[C@H]2C(=O)N(c2cccc(CO)c2)[C@H](C(=O)NC2CC(F)(F)C2)c2ccccc2Cl)c1 [Compound 131, (S)—N—((S)-1-(2-Chlorophenyl)-2-(3,3-difluorocyclobutylamino)-2-oxoethyl)-1-(4-cyanopyridin-2-yl)-N-(3-(hydroxymethyl)phenyl)-5-oxopyrrolidine-2-carboxamide] | < 100 | 
N#Cc1ccnc(N2C(=O)OC[C@H]2C(=O)N(c2cncc(F)c2)[C@H](C(=O)NC2CCC(F)(F)CC2)c2ccccc2Cl)c1 [Compound 132, (S)—N—((S)-1-(2-Chlorophenyl)-2-((4,4-difluorocyclohexyl)amino)-2-oxoethyl)-3-(4-cyanopyri-din-2-yl)-N-(5-fluoropyridin-3-yl)-2-oxooxazolidine-4-carboxamide] | < 100 | 
N#Cc1ccnc(N2C(=O)OC[C@H]2C(=O)N(c2cncc(F)c2)[C@H](C(=O)NC2CC(F)(F)C2)c2ccccc2Cl)c1 [Compound 135, (S)—N—((S)-1-(2-Chlorophenyl)-2-((3,3-difluorocyclobutyl)amino)-2-oxoethyl)-3-(4-cyanopyri-din-2-yl)-N-(5-fluoropyridin-3-yl)-2-oxooxazolidine-4-carboxamide] | < 100 | 
N#Cc1ccnc(N2C(=O)CC[C@H]2C(=O)N(c2cccc(C3(O)CC3)c2)[C@H](C(=O)NC2CC(F)(F)C2)c2ccccc2Cl)c1 [Compound 140, (S)—N—((S)-1-(2-Xhlorophenyl)-2-(3,3-difluorocyclobutylamino)-2-oxoethyl)-1-(4-cyanopyridin-2-yl)-N-(3-(1-hydroxycyclopropyl)phenyl)-5-oxopyrrolidine-2-carboxamide] |  | < 100
N#Cc1ccnc(N2C(=O)CC[C@H]2C(=O)N(c2cccc3[nH]cnc23)C(C(=O)NC2CCC(F)(F)CC2)c2ccccc2Cl)c1 (stereo partly drawn) [Compound 141, (2S)—N-(1H-benzo[d]imidazol-7-yl)-N-(1-(2-chlorophenyl)-2-((4,4-difluorocyclohexyl)amino)-2-oxoethyl)-1-(4-cyanopyridin-2-yl)-5-oxopyrrolidine-2-carboxamide] | < 100 | 
N#Cc1ccnc(N2C(=O)OCC[C@H]2C(=O)N(c2cncc(F)c2)[C@H](C(=O)NC2CC(F)(F)C2)c2ccccc2Cl)c1 [Compound 143, (S)—N—((S)-1-(2-Chlorophenyl)-2-((3,3-difluorocyclobutyl)amino)-2-oxoethyl)-3-(4-cyanopyridin-2-yl)-N-(5-fluoropyridin-3-yl)-2-oxo-1,3-oxazinane-4-carboxamide] | < 100 | 
N#Cc1ccnc(N2C(=O)OCC[C@H]2C(=O)N(c2cc(F)cc(F)c2)[C@H](C(=O)NC2CCC(F)(F)CC2)c2ccccc2Cl)n1 [Compound 144, (S)—N—((S)-1-(2-Chlorophenyl)-2-((4,4-difluorocyclohexyl)amino)-2-oxoethyl)-3-(4-cyanopyrimidin-2-yl)-N-(3,5-difluorophenyl)-2-oxo-1,3-oxazinane-4-carboxamide] | < 100 | 
CC(C)(O)c1cc(F)cc(N(C(=O)[C@@H]2CCOC(=O)N2c2cc(C#N)ccn2)[C@H](C(=O)NC2CC(F)(F)C2)c2ccccc2Cl)c1 [Compound 146, (S)—N—((S)-1-(2-Chlorophenyl)-2-(3,3-difluorocyclobutylamino)-2-oxoethyl)-3-(4-cyanopyridin-2-yl)-N-(3-fluoro-5-(2-hydroxypropan-2-yl)phenyl)-2-oxo-1,3-oxazinane-4-carboxamide] | < 100 | 
N#Cc1ccnc(N2C(=O)CC[C@H]2C(=O)N(c2cncc(F)c2)[C@H](C(=O)NC2CC(F)(F)C2)c2ccccc2)c1 [Compound 147, (S)-1-(4-Cyanopyridin-2-yl)-N—((S)-2-((3,3-difluorocyclobutyl)amino)-2-oxo-1-phenylethyl)-N-(5-fluoropyridin-3-yl)-5-oxopyrrolidine-2-carboxamide] | < 100 | 
N#Cc1ccnc(N2C(=O)[C@H](F)C[C@H]2C(=O)N(c2cccc(F)c2)[C@H](C(=O)NC2CCC(F)(F)CC2)c2ccccc2Cl)c1 [Compound 151, (2S,4R)—N—((S)-1-(2-Chlorophenyl)-2-((4,4-difluorocyclohexyl)amino)-2-oxoethyl)-1-(4-cyanopyridin-2-yl)-4-fluoro-N-(3-fluorophenyl)-5-oxopyrrolidine-2-carboxamide] | < 100 | 

The next lines start with results.

IC50 (Homo sapiens, U-87 MG, 48 h) [nM] | Compound | IC50 (inhibition of 2-HG production, U87MG cells, 48 hours) [nM]
100 to 500 | N#Cc1ccnc(N2C(=O)[C@H](O)C[C@H]2C(=O)N(c2cc(F)cc(F)c2)[C@@H](C(=O)NC2CCC(F)(F)CC2)c2ccccc2Cl)n1 [Compound 126, (2S,4R)—N—((R)-1-(2-Chlorophenyl)-2-(4,4-difluorocyclohexylamino)-2-oxoethyl)-1-(4-cyanopyrimidin-2-yl)-N-(3,5-difluorophenyl)-4-hydroxy-5-oxopyrrolidine-2-carboxamide] | 
< 100 | N#Cc1ccnc(N2C(=O)CC[C@H]2C(=O)N(c2cccc(OCCO)c2)[C@H](C(=O)NC2CC(F)(F)C2)c2ccccc2Cl)c1 [Compound 130, (S)—N—((S)-1-(2-Chlorophenyl)-2-((3,3-difluorocyclobutyl)amino)-2-oxoethyl)-1-(4-cyanopyridin-2-yl)-N-(3-(2-hydroxyethoxy)phenyl)-5-oxopyrrolidine-2-carboxamide] | 
< 100 | N#Cc1ccnc(N2C(=O)OCC[C@H]2C(=O)N(c2cc(F)cc(F)c2)[C@H](C(=O)NC2CC(F)(F)C2)c2ccccc2Cl)c1 [Compound 133, (S)—N—((S)-1-(2-Chlorophenyl)-2-((3,3-difluorocyclobutyl)amino)-2-oxoethyl)-3-(4-cyanopyridin-2-yl)-N-(3,5-difluorophenyl)-2-oxo-1,3-oxazinane-4-carboxamide] | 
< 100 | N#Cc1ccnc(N2C(=O)OCC[C@H]2C(=O)N(c2cncc(F)c2)[C@H](C(=O)NC2CCC(F)(F)CC2)c2ccccc2Cl)c1 [Compound 137, (S)—N—((S)-1-(2-Chlorophenyl)-2-((4,4-difluorocyclohexyl)amino)-2-oxoethyl)-3-(4-cyano-pyridin-2-yl)-N-(5-fluoropyridin-3-yl)-2-oxo-1,3-oxazinane-4-carboxamide] | 
< 100 | N#Cc1ccnc(N2C(=O)CC[C@H]2C(=O)N(c2cccc(F)c2)[C@H](C(=O)NC2CC(F)(F)C2)c2ccccc2)c1 [Compound 138, (S)-1-(4-Cyanopyridin-2-yl)-N—((S)-2-((3,3-difluorocyclobutyl)amino)-2-oxo-1-phenylethyl)-N-(3-fluorophenyl)-5-oxopyrrolidine-2-carboxamide] | 
< 100 | N#Cc1ccnc(N2C(=O)OCC[C@H]2C(=O)N(c2cc(F)cc(F)c2)[C@H](C(=O)NC2CCC(F)(F)CC2)c2ccccc2Cl)c1 [Compound 139, (S)—N—((S)-1-(2-Chlorophenyl)-2-((4,4-difluorocyclohexyl)amino)-2-oxoethyl)-3-(4-cyanopyridin-2-yl)-N-(3,5-difluorophenyl)-2-oxo-1,3-oxazinane-4-carboxamide] | 
< 100 | N#Cc1ccnc(N2C(=O)CC[C@H]2C(=O)N(c2cncc(F)c2)[C@H](C(=O)NC2CC(F)(F)C2)c2ccccc2F)c1 [Compound 148, (S)-1-(4-Cyanopyridin-2-yl)-N—((S)-2-((3,3-difluorocyclobutyl)amino)-1-(2-fluorophenyl)-2-oxoethyl)-N-(5-fluoropyridin-3-yl)-5-oxopyrrolidine-2-carboxamide] | 
< 100 | N#Cc1ccnc(N2C(=O)CC[C@H]2C(=O)N(c2cccc(F)c2)[C@H](C(=O)NC2CC(F)(F)C2)c2ccccc2F)c1 [Compound 149, (S)-1-(4-Cyanopyridin-2-yl)-N—((S)-2-((3,3-difluorocyclobutyl)amino)-1-(2-fluorophenyl)-2-oxoethyl)-N-(3-fluorophenyl)-5-oxopyrrolidine-2-carboxamide] | 
< 100 | N#Cc1ccnc(N2C(=O)CC[C@H]2C(=O)N(c2cccc3[nH]ncc23)C(C(=O)NC2CC(F)(F)C2)c2ccccc2Cl)c1 (stereo partly drawn) [Compound 152, (2S)—N-(1-(2-Chlorophenyl)-2-((3,3-difluorocyclobutyl)amino)-2-oxoethyl)-1-(4-cyanopyridin-2-yl)-N-(1H-indazol-4-yl)-5-oxopyrrolidine-2-carboxamide] | 
< 100 | N#Cc1cc(C#N)cc(N(C(=O)[C@@H]2CCC(=O)N2c2cc(C#N)ccn2)[C@H](C(=O)NC2CC(F)(F)C2)c2ccccc2Cl)c1 [Compound 153, (S)—N—((S)-1-(2-Chlorophenyl)-2-((3,3-difluorocyclobutyl)amino)-2-oxoethyl)-1-(4-cyanopyridin-2-yl)-N-(3,5-dicyanophenyl)-5-oxopyrrolidine-2-carboxamide] | 
